# Patent publication US11897910B2, “Mito-honokiol compounds and methods of synthesis and use thereof” (The Medical College of Wisconsin, Inc., priority 2015, dated 2024)
# Columns and labels:
# [1] = system: human MiaPaCa-2 pancreatic cancer cells; assay: Antiproliferative effect on pancreatic cancer cells; assay type: cell-based
# Text: FIG. 3. Comparison of anti-proliferative effects of honokiol (HNK), mito-honokiol (Mito-HNK) and bis-mito-honokiol (Mito-bis-HNK) on human MiaPaCa-2 pancreatic cancer cells.
# FIG. 15A-15F. Effects of mito-honokiol alone or in combination with 2-deoxyglucose on pancreatic cells. […] Further, the combining the mito-honokiols of the present invention with antiglycolytic agents (e.g. 2-deoxyglucose) reduced the rate of proliferation of pancreatic cancer cells than either treatment alone, as shown for a number of different concentrations in FIG. 15C-F.
# The inventors also compared the antiproliferative activity of mito-honokiol analogs to honokiol using human MiaPaCa-2 pancreatic cancer cells (FIG. 3).
# DMS-273 cells = assay: Cell proliferation assay (IncuCyte); assay type: cell-based; settings: Homo sapiens
# Method: (§1) For the cell proliferation assay, cells were seeded onto 96-well tissue culture plates at 2-3,000 cells per well. Twenty-four hours after seeding, treatment group cells were exposed to various concentrations of HNK for 48 hours, and control group cells received fresh medium. The plate was incubated at 37° C. and 5% CO2 and monitored in IncuCyte (Essen Bioscience, Ann Arbor, MI). Data analysis was conducted using IncuCyte […] software. All assays were performed in triplicate. Next, we examined the anticancer effects of Mito-HNK compared to HNK in vitro. Various doses of HNK and Mito-HNK were treated in either H2030-BrM3 or DMS-273 cells, and the antiproliferative effects were monitored with an IncuCyte Live-Cell Imaging Analyzer. […] Furthermore, we examined the anti-invasive effects of Mito-HNK in H2030-BrM3 and DMS-273 cells via a Boyden chamber invasion assay. Both cells were treated with vehicle control (DMSO), HNK (20 μM), and Mito-HNK (0.2 μM) for 36 hours, and invaded cells were determined.
# H2030-BrM3 cells = assay: Cell proliferation assay (IncuCyte); assay type: cell-based; settings: Homo sapiens
# Method: as §1
# [2] = system: H2030-BrM3 and DMS-273 orthotopic lung tumors; assay: Orthotopic lung cancer model; assay type: in vivo, mice
# Method: DM273 cells (1×10^6 cells/50 μg of growth factor reduced Matrigel in 50 μL of RPMI-1640 medium) were injected into the left lung. One week after injection, mice were treated with the same dose of HNK or Mito-HNK (7.5 μmol/kg) or vehicle (corn oil) by oral gavage five times per week for three weeks). […] Five-week-old male athymic nude mice were used for experiments. Mice were anesthetized with isoflurane and placed in the right lateral decubitus position. A total of 1×10^6 H2030-BrM3 cells in 50 μg of growth factor reduced Matrigel (BD Biosciences, San Jose, CA) in 50 μL of RPMI-1640 medium were injected through the left rib cages of mice into their left lungs, as previously described (Nguyen et al., 2009). […] Tumor growth and metastases phenotypes were monitored during this time by bioluminescence with an Xenogen IVIS-200. Mice were sacrificed at the endpoint; tissues were extracted, freshly frozen, and OCT-fixed or formalin-fixed with 10% zinc for later western blot and immunohistochemistry (IHC) analyses.
# MiaPaCa-2 cells = assay: Intracellular ATP, combination with 2-deoxyglucose; assay type: cell-based, human; settings: combined with 2-deoxyglucose (2-DG)
# Text: FIG. 4. Synergistic depletion of intracellular ATP in MiaPaCa-2 cells by combination of 2-deoxyglucose (2-DG) and honokiol (HNK) and mito-honokiol (Mito-HNK). The data were obtained on the human pancreatic cancer MiaPaCa-2 cell line. […] In one embodiment, the mito-honokiols of the present invention may be also used in combination with standard-of-care chemotherapeutics or with ionizing radiation to treat resistant cancer cells.
# STAT3 phosphorylation = assay: PathScan RTK signaling array; assay type: cell-based; settings: DMS-273 cells; HNK 10 μM and 20 μM, Mito-HNK 0.2 μM, six hours
# Method: H2030-BrM3 and DMS-273 cells treated with control DMSO and various doses of HNK and Mito-HNK for four hours were lysed with 200 μl lysis buffer containing proteinase inhibitor cocktails (Cell Signaling Technology, Danvers, MA), sheared 10 times with a 28-gauge needle, spun at 16,000×g for 30 min, and normalized by protein concentration as determined by the Bradford method. Normalized lysate was resolved in a PathScan RTK Signaling Array, and the signaling array was examined by a Li-COR Odyssey infrared imaging system (Li-COR Biosciences-Biotechnology, Lincoln, NE).
# For the RTK signaling array, we treated DMS-273 cells with two different doses of HNK (10 μM and 20 μM) and Mito-HNK (0.2 μM) for six hours.
# [3] = target: mitochondrial complex I in UACC-62-R cells; assay: Seahorse XF96 bioenergetics (OCR, complex I-mediated respiration, glycolysis); assay type: cell-based, human
# Method: (§2) Melanoma cells harboring BRAF oncogenic mutations use aerobic glycolysis (the Warburg effect) to meet their energy demands. […] One reason for the acquired resistance to PLX4720 is the adaptive change from glycolysis to OXPHOS.
# (§3) We used a Seahorse XF96 Analyzer to measure OCR, a readout of mitochondrial respiration, and […], a surrogate marker for glycolysis, in real time. OCR is measured after adding substrates and inhibitors of complexes I-IV. In preliminary studies, Mito-MGN inhibited complex I activity in both WT and resistant cells (FIG. 21F).
# [4] = system: mitochondrial complex I in UACC-62-WT cells; assay: as above; assay type: cell-based, human
# Method: as §2, §3
# UACC-62-R cells [5] = assay: Melanoma cell proliferation monitored in real time; assay type: cell-based, human; settings: 0.1-0.3 μM, six days
# Method: (§4) UACC-62-WT cells (A) or UACC-62-R cells (B) were treated with PLX4720 as indicated. Cell proliferation was monitored in real time with the continuous presence of indicated treatments until the end of each experiment. (C) Representative images shown are the segmentation of phase contrast images (segmentation mask illustrated in black). (D) The cell confluence (as control groups reach 95% confluency) is plotted against concentration of PLX4720 inhibitor. Dashed lines represent the fitting curves used to determine the IC50 values. […] (F) The effect of Mito-MGN (0.2 μM) on mitochondrial complex I and II activities (oxygen consumption rate, OCR) is shown for wild-type (red) and resistant UACC-62 (blue) melanoma cells.
# (§5) UACC-62-WT cells (A) or UACC-62-R cells (B) were treated with Mito-MGN as indicated. Cell proliferation was monitored in real time with the continuous presence of indicated treatments until the end of each experiment. (C) Representative images shown are the segmentation of phase contrast images (segmentation mask illustrated in black). (D) The cell confluence (as control groups reach 95% confluency) is plotted against Mito-MGN concentration. Dashed lines represent the fitting curves used to determine the IC50 values.
# (§6) To establish PLX4720-resistant melanoma cell line, UACC-62 cells (ATCC) were continuously exposed to increasing concentrations of PLX4720 (1-20 μM) for six months until the logarithmic growth resumed. PLX4720-containing media were replaced twice a week. Resistant cell line (UACC-62R) was maintained in routine culture in the presence of 20 μM PLX4720. FIGS. 21A and 21B show the effect of PLX4720 on proliferation of UACC-62-WT and UACC-62-R cells.
# (§7) FIGS. 22A and 22B show the effect of Mito-magnolol on proliferation of UACC-62-WT and UACC-62-R cells. Cell proliferation was monitored in real time for cells incubated continuously under treatment conditions as shown.
# UACC-62-WT cells [6] = assay: Melanoma cell proliferation monitored in real time; assay type: cell-based, human
# Method: as §4, §5, §6, §7
# UACC-62-R cells [7] = assay: Hydroethidine oxidation products by HPLC; assay type: cell-based, human; settings: 24 h preincubation
# Method: (§8) Mito-magnolol stimulates ROS and causes oxidation of mitochondrial antioxidative enzyme in BRAFV600E inhibitor-resistant melanoma cells. UACC-62-WT and UACC-62-R cells were preincubated with Mito-magnolol for 24 h and then treated with hydroethidine. Cell lysates were analyzed by HPLC and the superoxide-specific hydroxylation product (2-OH-E^+) and other two-electron and one-electron oxidation products (E^+ and E^+-E^+) were determined.
# (§9) Hydroethidine (HE) was used to measure intracellular O2^⋅− formation. 2-Hydroxyethidium (2-OH-E^+), the diagnostic marker product of O2^⋅−/HE reaction (FIG. 23A) increased in Mito-MGN treated melanoma cells (FIG. 23B). In addition, Mito-MGN induced the iron or peroxidase-dependent oxidation of HE as evidenced by enhanced intracellular formation of E^+-E^+ and E^+ (FIG. 23B).
# UACC-62-WT cells [8] = assay: Hydroethidine oxidation products by HPLC; assay type: cell-based, human; settings: 24 h preincubation
# Method: as §8, §9
# [9] = system: mitochondrial Prx3 in WT melanoma cells; assay: Peroxiredoxin redox status (Western blot); assay type: cell-based, human; settings: cytosolic Prx1 largely unaffected
# Text: (§10) (A) Western blot show the redox status of cytosolic (Prx1) and mitochondrial (Prx3) peroxiredoxins. (B) Quantitative analysis of the extent of Prx1 and Prx3 oxidation. Values are mean±SD, n=3. **, P≤0.01. (C) Scheme showing the pathways controlling the redox state and covalent dimer formation of peroxiredoxins in cells.
# (§11) Peroxiredoxins (Prx) are abundant endogenous intracellular thiol peroxidases that act as compartment-specific sensors of hydrogen peroxide (H2O2) in mitochondrial (Prx3) and cytosolic (Prx1) compartments (62-64). Prxs rapidly react with H2O2 (k=10^6-10^7 M^−1 s^−1) (64, 65). Prx3 accounts for nearly 90% of mitochondrial peroxidase activity (64, 66).
# [10] = system: mitochondrial Prx3 in resistant melanoma cells; assay: Peroxiredoxin redox status (Western blot); assay type: cell-based, human; settings: cytosolic Prx1 largely unaffected
# Text: as §10, §11
# UACC-62 cells = assay: TMRE flow cytometry, mitochondrial depolarization; assay type: cell-based, human; settings: pilot experiments
# Text: (A) Representative TMRE quantification using flow cytometry. (B) Mean fluorescence intensity (MFI) of TMRE in Mito-MGN-treated and vehicle (V)-treated UACC-62-WT cells. Values are mean±SEM, n=3
# Not to be bound by any theory, but it is believed that Mito-MGN-induced ROS halts melanoma proliferation through induction of mitophagy. ROS at high μM concentrations have detrimental effects on lipids, proteins, and DNA, whereas at nM concentrations, ROS exerts potent signaling effects (11, 41, 65). We postulate that OXPHOS inhibition by Mito-MGN increases ROS levels, which in turn stimulates mitophagy. To test this hypothesis, we will use an iterative approach to first measure mitochondrial membrane damage, followed by the parallel examination of molecular markers and phagolysome activation needed for mitophagy. Tetramethylrhodamine ethyl ester (TMRE) is retained in metabolically active mitochondria and released into the cytosol and extracellular space of cells with depolarized/damaged mitochondria (67), as illustrated in our recent paper using related mitochondria-targeted agents (12).
# UACC-62-WT cells [11] = assay: UACC-62-WT orthotopic melanoma xenograft; assay type: in vivo, mice; settings: 1 mg injected intratumorally in 50 μL
# Method: (A) Representative μCT images on day 58 from UACC-62-WT xenographed (T=tumor) mice treated twice a week with vehicle (left) or 1 mg Mito-MGN (right). Data representative of 2 mice per group. (B) Quantification of tumor volume (mm^3) measured using calipers ex vivo on day 58.
# The efficacy of Mito-MGN in a murine model of melanoma was tested using cells sensitive and resistant to BRAF inhibitors as tools to probe the anti-tumor effects of targeted OXPHOS inhibitors.
# B16.F10 cells = assay: B16.F10 orthotopic melanoma model; assay type: in vivo, mice
# Method: (A) Kaplan-Maier survival curves of B16-F10 engrafted mice treated on days 7, 9, 11, 14, 16, & 18 with Mito-MGN [1 mg] or with α-PD-L1 [250 μg]. (B) Tumor size (mm2) over time. (C) Tumor volume measured on day 19. Values are mean±SD, n=4 mice/group. ***, P≤0.001.
# T cells were detected using CD3 immunostaining (brown). Arrowheads highlight CD3+ T cells in melanoma (blue cells). Data representative of 4 separate mice.
# [12] = Serum toxicity markers (pilot study); settings: three weekly treatment at 5 mg/kg
# [13] = 1 mg/tumor Mito-MGN or 250 μg anti-PD-L1 antibody
smiles,measurement,setting,value
C=CCc1ccc(OCCCCCCCCCC[P+](c2ccccc2)(c2ccccc2)c2ccccc2)c(-c2ccc(OCCCCCCCCCC[P+](c3ccccc3)(c3ccccc3)c3ccccc3)c(CC=C)c2)c1 [Bis-Mito-HNK],antiproliferative potency compared with honokiol,[1]; MiaPaCa-2,more potent than honokiol
"C=CCc1ccc(O)c(-c2ccc(O)c(CC=C)c2)c1 [HNK, honokiol]",IC50,DMS-273 cells,30 µM
same,IC50,H2030-BrM3 cells,27 µM
same,tumor growth,[2]; 7.5 μmol/kg oral gavage five times per week for three weeks,did not significantly reduce tumor growth
same,observable side effects,[2]; H2030-BrM3 and DMS-273 orthotopic models,did not show any observable side effects
same,cellular ATP levels,MiaPaCa-2 cells,synergize with 2-deoxyglucose (2-DG) in decreasing cellular ATP levels
same,STAT3 phosphorylation levels,STAT3 phosphorylation,dramatically decreased
C=CCc1ccc(O)c(-c2cc(CC=C)ccc2OC[P+](c2ccccc2)(c2ccccc2)c2ccccc2)c1.[Br-] [Mito-MGN],antiproliferative effects,"[1]; 1 μM, FIG. 15B",exhibit antiproliferative effects
same,IC50,"[3]; read-out: IC50 to inhibit complex I-mediated respiration, 1 h treatment, UACC-62-R",0.66 µM
same,OXPHOS (OCR),[3]; resistant cells,significantly inhibiting OXPHOS
same,glycolysis (SCAR/PPR),[3]; resistant cells,minimally affected glycolysis
same,OXPHOS (OCR),[4]; WT cells,significantly inhibiting OXPHOS
same,glycolysis (SCAR/PPR),[4]; WT cells,minimally affected glycolysis
same,IC50,"[4]; read-out: IC50 to inhibit complex I-mediated respiration, 1 h treatment, UACC-62-WT",0.35 µM
same,sensitivity of proliferation,UACC-62-R cells [5],exquisitely sensitive
same,sensitivity of proliferation,"UACC-62-WT cells [6]; 0.1-0.3 μM, six days",exquisitely sensitive
same,"HE oxidation products 2-OH-E+, E+ and E+-E+",UACC-62-R cells [7],significantly higher amount
same,"HE oxidation products 2-OH-E+, E+ and E+-E+",UACC-62-WT cells [8],significantly higher amount
same,oxidation of mitochondrial Prx3,[9],stimulated the oxidation of mitochondrial Prx3
same,oxidation of mitochondrial Prx3,[10],stimulated the oxidation of mitochondrial Prx3
same,mitochondrial membrane potential (TMRE),UACC-62 cells,dose dependently decreases mitochondrial membrane potential
same,tumor size (μCT in vivo and ex vivo excised tumors),UACC-62-WT cells [11],potently reduced tumor size
same,melanoma growth in vivo,B16.F10 cells; [13],decreased melanoma growth
same,survival,B16.F10 cells; [13],increased survival
same,T cell levels in excised tumors (CD3 immunostaining),B16.F10 cells; compared to vehicle control tumors,increased T cell levels
same,efficiency in abrogating tumor progression and size,B16.F10 cells; compared with anti-PD-L1,equal to anti-PD-L1
same,BUN,"[12]; serum, day 19, Mean ± SE, n = 4-5, ref (12-28)",24.5 ± 1.9 mg/dL
same,ALT,"[12]; serum, day 19, Mean ± SE, n = 4-5, ref (22-77)",58.7 ± 12.7 IU/L
same,AP,"[12]; serum, day 19, Mean ± SE, n = 4-5, ref (45-222)",36.7 ± 10.8 IU/L
same,liver or kidney toxicity,[12],little liver or kidney toxicity
"CCCS(=O)(=O)Nc1ccc(F)c(C(=O)c2c[nH]c3ncc(Cl)cc23)c1F [PLX4720, reference compound]",cells after six days of treatment (phase contrast images),"UACC-62-WT cells [6]; 10 μM, WT versus resistant cells",considerably fewer WT cells compared to resistant cells
